The values below come from publication PMC10496295, “In vitro cytotoxic effect of stigmasterol derivatives against breast cancer cells” (BMC Complementary Medicine and Therapies, 2023).

The test system of series [1] is U937 human monocytic cell line. Also noted: method as in PMID 20828195. The note with it: cited from earlier work; for reduction in cell viability / level of cell death compared to the untreated control: p < 0.05; for level of cell death compared to the untreated control: FDA/EtBr staining.
For series [2], the system named is MCF-7 hormone receptor-positive breast cancer cell line. Description: resazurin cytotoxicity assay, MCF-7 cells. In kind it is cell-based. The following applies: for SI (selectivity index), MCF-7: EC50 against MCF12A cells ÷ EC50 against MCF-7 cells; for EC50: Homo sapiens.
For series [3], the system named is HCC70 triple negative breast cancer cell line. The series is described as follows: resazurin cytotoxicity assay, HCC70 cells. It is filed as cell-based. The note with it: for SI (selectivity index), HCC70: EC50 against MCF12A cells ÷ EC50 against HCC70 cells; for EC50: Homo sapiens.
In series [4] the test system is MCF-12 A non-tumorigenic breast epithelial cell line. Description: resazurin cytotoxicity assay, MCF-12 A cells. It is filed as cell-based. The note with it: Homo sapiens.
Series [5] relates to oxidative burst of the whole blood. Also noted: method as in PMID 23136063. The following applies: cited from earlier work.
For series [6], the system named is human breast cancer MCF-7 cell line. On the set-up: method as in PMID 33839518. The following applies: read-out: IC50 against MCF-7 cell line; cited from earlier work.
Series [7] has as its system human ovarian cancer cells ES2. Also noted: method as in PMID 32481565. The following applies: treatment concentration 20 µg/mL; cited from earlier work.
In series [8] the test system is human gastric cancer cell line SNU-1. The note with it: read-out: IC50, SNU-1 proliferation; cited from earlier work.
For series [9], the system named is human ovarian cancer cells OV90. Also noted: method as in PMID 32481565. The following applies: treatment concentration 20 µg/mL; cited from earlier work.
Setting [10] is: MCF7, MCF-7 cells, 96 h treatment, resazurin assay, read-out: EC50 and Standard deviation, MCF-7.
[11] abbreviates: HCC70 cells, 96 h treatment, resazurin assay, read-out: EC50 and Standard deviation, HCC70.
Where [12] appears, read: MCF-12 A cells, 96 h treatment, resazurin assay, read-out: EC50 and Standard deviation, MCF-12 A.
The mark [13] stands for this setting: MCF7, 96 h, read-out: EC50 and Standard deviation, MCF-7, MCF-7 cells, 96 h treatment, resazurin assay.
Setting [14] is: HCC70, 96 h, read-out: EC50 and Standard deviation, HCC70, HCC70 cells, 96 h treatment, resazurin assay.
Setting [15] is: MCF-12A, 96 h, read-out: EC50 and Standard deviation, MCF-12 A, MCF-12 A cells, 96 h treatment, resazurin assay.

Like-named read-outs stand apart in the source and are kept apart here.

For the compound `CC[C@@H](C(C)C)C(O)C(O)[C@@H](C)C1CCC2C3CC4OC45C[C@@H](O)CC[C@]5(C)C3CC[C@@]21C` (stereo partly drawn) [Compound 5, 5,6-Epoxystigmasta-3β,22,23-triol], the “reduction in cell viability” value in series [1] (U937 cells, 60 and 120 µM) is “significantly reduced cell viability”. The “level of cell death compared to the untreated control” value in [1] (U937 cells) is given as “significant”. Moreover, the “mode of cell death” value in [1] (U937 cells, staining with Hoechst 33,342) is reported as “apoptosis”. Moreover, the “SI (selectivity index), MCF-7” value in [2] is given as 0.69. Also, the values for the EC50 in [2] (setting [10]), in series [3] (setting [11]) and in [4] (setting [12]) were 44000 ± 1400 nM, 33700 ± 1330 nM and 30200 ± 1280 nM, respectively. Moreover, the “SI (selectivity index), HCC70” value in series [3] is recorded as 0.90.
Turning to `CC(C)Cc1ccc(C(C)C(=O)O)cc1` (stereo not drawn) [ibuprofen, reference compound], in series [5], the IC50 was 12.1 µM.
For the compound `CC[C@@H](C(C)C)C(O)C(O)[C@@H](C)[C@H]1CC[C@H]2[C@@H]3CC(O)C4(O)C[C@@H](O)CC[C@]4(C)[C@H]3CC[C@]12C` (stereo partly drawn) [Compound 6, Stigmastane-3β,5,6,22,23-pentol], the melting point lay in the range of 201 to 204 °C. In addition, the “SI (selectivity index), MCF-7” value in series [2] came to 0.51. The EC50 in series [2] (setting [10]) stood at 44100 ± 1400 nM. Further, the EC50 in series [3] (setting [11]) is 16800 ± 1170 nM. For the same compound, the EC50 in [4] (setting [12]) is 22600 ± 1220 nM.
As for `CC[C@@]1(O)C(=O)OCc2c1cc1n(c2=O)Cc2cc3ccccc3nc2-1` [Camptothecin, reference compound], the “SI (selectivity index), MCF-7” value in series [2] turned out to be 1.00. In addition, the EC50 in series [2] (MCF7, MCF-7 cells, 96 h, resazurin assay, positive control, row unit nM, read-out: EC50 and Standard deviation, MCF-7) is 104 ± 9.92 nM; in series [3] (HCC70 cells, 96 h, resazurin assay, positive control, row unit nM, read-out: EC50 and Standard deviation, HCC70), 83.2 ± 1.08 nM; in series [4] (MCF-12 A cells, 96 h, resazurin assay, positive control, row unit nM, read-out: EC50 and Standard deviation, MCF-12 A) it was 104.2 ± 1.03 nM. In addition, the “SI (selectivity index), HCC70” value in series [3] was determined as 1.25.
Compound `CC[C@H](C=C[C@@H](C)[C@H]1CC[C@H]2[C@@H]3C(=O)C=C4CC(=O)CC[C@]4(C)[C@H]3CC[C@]12C)C(C)C` [Compound 3, Stigmasta-5,22-dien-3,7-dione] returned a melting point of 152 to 155 °C. Moreover, the IC50 in [5] is 15.6 ± 2.1 µM. Further, the “SI (selectivity index), MCF-7” value in [2] amounted to 0.70. Also, the EC50 in series [2] (setting [10]) came to 42800 ± 1320 nM. For the same compound, the “SI (selectivity index), HCC70” value in series [3] is 0.45. The EC50 in [3] (setting [11]) amounted to 67700 ± 1260 nM. In addition, the EC50 in series [4] (setting [12]) amounted to 30200 ± 1240 nM.
`CC[C@@H](C(C)C)C(O)C(O)[C@@H](C)[C@H]1CC[C@H]2[C@@H]3CC=C4C[C@@H](O)CC[C@]4(C)[C@H]3CC[C@]12C` (stereo partly drawn) [Compound 9, Stigmast-5-ene-3β,22,23-triol]: the “reduction in cell viability” value in series [1] (U937 cells, 30, 60 and 120 µM) is “significant reduction”. Further, the “level of cell death compared to the untreated control” value in series [1] (U937 cells) is “significant”. Further, in series [1] (U937 cells, highest concentration 120 µM), the cell viability is 52.3%. Also, the EC50 was 22900 ± 1090 nM in series [2] (setting [10]), 44500 ± 1130 nM in series [3] (setting [11]) and 51800 ± 1130 nM in [4] (setting [12]). In series [3], the “SI (selectivity index), HCC70” value is reported as 1.16.
Regarding `CC[C@@H](C(C)C)C(O)C(O)[C@@H](C)C1CCC2C3C(=O)C(O)C4(O)CC(=O)CC[C@]4(C)C3CC[C@@]21C` (stereo partly drawn) [Compound 8, Stigmasta-3,7-dion-5,6,22,23-ol], the melting point lay within 183 to 187 °C. In addition, in [2] (setting [10]), the EC50 was above 250000 nM. In [3] (setting [11]), the EC50 is 53200 ± 1060 nM. In addition, in series [4] (setting [12]), the EC50 is above 250000 nM.
As for `CC[C@H](C=C[C@@H](C)[C@H]1CC[C@H]2[C@@H]3CC4OC45C[C@@H](O)CC[C@]5(C)[C@H]3CC[C@]12C)C(C)C` (stereo partly drawn) [Compound 4, 5,6-Epoxystigmast-22-en-3β-ol], the melting point is 142 to 145 °C. For the same compound, the EC50 in [2] (setting [10]) is 21900 ± 1320 nM. In addition, the “SI (selectivity index), HCC70” value in series [3] is reported as 0.28. Also, the EC50 in [3] (setting [11]) was 165700 ± 1300 nM. The EC50 in series [4] (setting [12]) is 47000 ± 1180 nM.
Consider `N.N.[Cl][Pt][Cl]` [cisplatin, reference compound], for which the IC50 in [6] was 13.2 µM.
With `CC[C@H](C=C[C@@H](C)[C@H]1CC[C@H]2[C@@H]3CC=C4C[C@@H](O)CC[C@]4(C)[C@H]3CC[C@]12C)C(C)C` [Compound 1, stigmasta-5,22-dien-3β-ol], the IC50 in [6] is 0.162 µM; in series [8] it was 15 µM. Further, the EC50 in series [2] (setting [13]), in series [3] (setting [14]) and in series [4] (setting [15]) was above 250000 nM throughout. Moreover, the “reduction of growth of ES2 cells” value in [7] was 50%. For the same compound, in series [9], the “reduction of growth of OV90 cells” value is on record as 50%.
On to `CC[C@H](/C=C/[C@@H](C)C1CCC2C3CC=C4C[C@@H](OC(C)=O)CC[C@]4(C)C3CC[C@@]21C)C(C)C` (stereo partly drawn) [Compound 2, Stigmasterol acetate], for which the melting point lay within 139 to 141 °C. For the same compound, the EC50 in series [2] (setting [13]) was above 250000 nM. In addition, the EC50 in series [3] (setting [14]) was above 250000 nM. For the same compound, in series [4] (setting [15]), the EC50 is above 250000 nM.
Consider `CC[C@@H](C(C)C)C(O)C(O)[C@@H](C)[C@H]1CC[C@H]2[C@@H]3C(=O)C=C4CC(=O)CC[C@]4(C)[C@H]3CC[C@]12C` (stereo partly drawn) [Compound 7, Stigmasta-5-en-3,7-dion-22,23-diol], for which the melting point is 137 to 140 °C. Moreover, the “SI (selectivity index), MCF-7” value in series [2] is 1.36. In addition, in series [2] (setting [10]), the EC50 was determined as 23200 ± 1080 nM. Further, in series [3], the “SI (selectivity index), HCC70” value is 0.19. Moreover, in series [3] (setting [11]), the EC50 was found to be 170100 ± 1180 nM. The EC50 in series [4] (setting [12]) turned out to be 31600 ± 1120 nM.
